Reference: PMC5218480 (PLoS ONE, 2017)
“And” between values parts separate entries of the source, which are not always exact repeats. Equal values may be shown once. Read-outs that look alike come from different tables or passages of the source.

Tests used:
MV-4-11 and HL-60 cells [1] = assay: Flow cytometry, cell cycle (EdU, S phase); assay type: cell-based, human; details: single agent, 72 hours
Description: (§1) All compounds and/or solvent DMSO were added concurrently at the indicated doses. Flow cytometry was performed to measure surface level of CD11b, cell cycle distribution, and induction of apoptosis. CD11b and apoptosis were analyzed on a FC500 flow cytometer ([…]) and cell cycle profiled on an Attune NxT (Life Technologies).
EdU labeled cells were then mixed with FxCycle Far Red Stain (Life Technologies) and 100 μg RNase A cocktail (Life technologies) for 30 minutes before flow cytometry analysis. Edu positive populations representing S phase cells were quantified.

HDAC8 = molecular target: T1, HDAC8 (Homo sapiens, UniProt Q9BY41); assay: HDAC enzyme assay, in vitro biochemical; details: maximum concentration tested of 20 μM
T1 construct: purchased BPS Biosciences
T1 sequence (Q9BY41 1-377): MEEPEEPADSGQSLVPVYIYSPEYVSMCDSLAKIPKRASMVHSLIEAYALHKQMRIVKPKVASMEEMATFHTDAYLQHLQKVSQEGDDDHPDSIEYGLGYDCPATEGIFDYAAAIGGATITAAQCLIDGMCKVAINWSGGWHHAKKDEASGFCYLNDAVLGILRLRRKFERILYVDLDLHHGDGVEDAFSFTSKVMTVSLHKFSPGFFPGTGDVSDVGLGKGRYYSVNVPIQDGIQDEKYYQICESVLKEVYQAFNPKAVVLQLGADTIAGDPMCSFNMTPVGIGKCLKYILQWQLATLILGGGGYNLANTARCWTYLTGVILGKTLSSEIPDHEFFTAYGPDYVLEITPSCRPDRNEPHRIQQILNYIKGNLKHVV
Description: (§2) In vitro biochemical assays were performed as described previously. Specifically, compounds were dissolved and diluted in assay buffer (50 mM HEPES, pH 7.4, 100 mM KCl, 0.001% Tween-20, 0.05% BSA, and 20 μM Tris (2-carboxyethyl) phosphine) to 6-fold the final concentration. […] The amount of substrate (acetyl-lysine tripeptide) used for each enzyme was equal to the Michaelis constant (Km), as determined by a titration curve. Substrate was diluted in assay buffer to 6-fold of the final concentration with 0.3 μM sequencing grade trypsin (Sigma-Aldrich). The substrate/trypsin mix was added to the enzyme/compound mix and the plate was shaken for 5 seconds and then placed into a SpectraMax M5 microtiter (Molecular Devices) plate reader. The enzymatic reaction was monitored over 30 minutes for release of […] after deacetylation of the lysine side chain in the peptide substrate, and the linear rate of the reaction was calculated.
(§3) biochemical assay for HDAC4, HDAC5, HDAC6, HDAC7, HDAC8, HDAC9 inhibition by ACY-1035.
(§4) (1 picture or pasted object on this page, not shown here)

HDAC5 = molecular target: T2, HDAC5 (Homo sapiens, UniProt Q9UQL6); assay: HDAC enzyme assay, in vitro biochemical; details: maximum concentration tested of 20 μM
T2 construct: purchased BPS Biosciences
T2 sequence (Q9UQL6 whole entry): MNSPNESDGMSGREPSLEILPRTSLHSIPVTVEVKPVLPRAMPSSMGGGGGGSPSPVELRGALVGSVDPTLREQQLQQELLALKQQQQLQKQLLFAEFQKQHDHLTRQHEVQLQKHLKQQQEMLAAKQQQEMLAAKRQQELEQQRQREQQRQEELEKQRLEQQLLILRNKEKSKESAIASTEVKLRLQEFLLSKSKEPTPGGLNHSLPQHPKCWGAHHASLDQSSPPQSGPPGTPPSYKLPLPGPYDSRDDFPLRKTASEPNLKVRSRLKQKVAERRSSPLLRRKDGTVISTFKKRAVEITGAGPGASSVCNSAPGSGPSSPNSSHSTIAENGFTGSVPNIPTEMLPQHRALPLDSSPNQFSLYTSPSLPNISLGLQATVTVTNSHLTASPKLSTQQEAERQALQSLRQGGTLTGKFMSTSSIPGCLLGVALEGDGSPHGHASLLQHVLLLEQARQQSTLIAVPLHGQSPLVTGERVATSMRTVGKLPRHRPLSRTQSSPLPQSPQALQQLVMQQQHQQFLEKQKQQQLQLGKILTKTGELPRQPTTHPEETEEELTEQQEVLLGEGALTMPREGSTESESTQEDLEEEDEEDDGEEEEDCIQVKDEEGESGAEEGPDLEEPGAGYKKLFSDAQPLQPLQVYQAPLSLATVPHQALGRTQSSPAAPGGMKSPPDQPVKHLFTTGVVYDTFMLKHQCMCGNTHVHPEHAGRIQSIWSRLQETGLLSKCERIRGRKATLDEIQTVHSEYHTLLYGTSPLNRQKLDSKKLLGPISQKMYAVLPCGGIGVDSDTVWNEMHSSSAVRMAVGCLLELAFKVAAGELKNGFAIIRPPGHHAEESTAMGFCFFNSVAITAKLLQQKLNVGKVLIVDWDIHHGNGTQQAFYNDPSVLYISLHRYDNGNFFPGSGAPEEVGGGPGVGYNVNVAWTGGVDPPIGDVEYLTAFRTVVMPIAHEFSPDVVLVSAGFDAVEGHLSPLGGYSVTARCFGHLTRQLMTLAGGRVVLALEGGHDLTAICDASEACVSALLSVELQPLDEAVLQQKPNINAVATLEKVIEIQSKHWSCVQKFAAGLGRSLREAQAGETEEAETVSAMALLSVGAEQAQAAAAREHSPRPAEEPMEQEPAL
Description: as §2, §3, §4

HDAC9 = molecular target: T3, HDAC9 (Homo sapiens, UniProt Q9UKV0); assay: HDAC enzyme assay, in vitro biochemical; details: maximum concentration tested of 20 μM
T3 construct: purchased BPS Biosciences
T3 sequence (Q9UKV0 whole entry): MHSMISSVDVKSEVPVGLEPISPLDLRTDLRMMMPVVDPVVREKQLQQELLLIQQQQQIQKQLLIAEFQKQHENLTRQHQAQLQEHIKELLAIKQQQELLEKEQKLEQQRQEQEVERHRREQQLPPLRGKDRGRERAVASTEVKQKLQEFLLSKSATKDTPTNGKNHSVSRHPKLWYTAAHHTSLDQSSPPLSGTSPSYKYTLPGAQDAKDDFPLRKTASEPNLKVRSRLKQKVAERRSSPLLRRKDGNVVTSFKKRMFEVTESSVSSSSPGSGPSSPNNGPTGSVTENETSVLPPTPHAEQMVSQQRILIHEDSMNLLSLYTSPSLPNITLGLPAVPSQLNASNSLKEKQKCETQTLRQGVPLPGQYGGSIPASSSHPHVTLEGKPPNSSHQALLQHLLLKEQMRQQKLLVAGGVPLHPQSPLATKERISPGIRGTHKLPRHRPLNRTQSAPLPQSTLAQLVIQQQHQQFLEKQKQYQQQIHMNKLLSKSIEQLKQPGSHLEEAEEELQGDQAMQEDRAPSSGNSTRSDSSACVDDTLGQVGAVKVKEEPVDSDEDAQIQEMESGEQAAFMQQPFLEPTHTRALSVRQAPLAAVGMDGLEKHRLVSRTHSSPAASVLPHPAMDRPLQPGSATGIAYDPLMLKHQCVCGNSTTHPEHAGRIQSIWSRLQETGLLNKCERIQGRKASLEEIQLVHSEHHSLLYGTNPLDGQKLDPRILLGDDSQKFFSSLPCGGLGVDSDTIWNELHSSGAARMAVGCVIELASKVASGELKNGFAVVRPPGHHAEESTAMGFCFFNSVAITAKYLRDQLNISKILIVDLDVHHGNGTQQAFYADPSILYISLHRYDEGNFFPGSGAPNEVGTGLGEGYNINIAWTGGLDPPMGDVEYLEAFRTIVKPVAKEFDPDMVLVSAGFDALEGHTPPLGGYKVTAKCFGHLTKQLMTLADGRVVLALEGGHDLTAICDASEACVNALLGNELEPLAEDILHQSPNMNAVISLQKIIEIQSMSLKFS
Description: as §2, §3, §4

[2] = system: MV-4-11, Kasumi-1 and HL-60 cell lines; assay: Histone acetylation by immunoblotting; assay type: cell-based, human; details: 24 hours, increasing doses
Description: The EpiQuick Total Histone Extraction kit (Epigentek) was used to isolate histones. Histone lysates were size separated on Bolt 10% Bis-Tris gradient gels (Life Technologies), transferred to polyvinylidene difluoride membranes, blocked in 5% BSA, and detected using standard western blotting techniques.

HDAC2 = molecular target: T4, HDAC2 (Homo sapiens, UniProt Q92769); assay: HDAC enzyme assay, in vitro biochemical
T4 construct: purchased BPS Biosciences
T4 sequence (Q92769 whole entry): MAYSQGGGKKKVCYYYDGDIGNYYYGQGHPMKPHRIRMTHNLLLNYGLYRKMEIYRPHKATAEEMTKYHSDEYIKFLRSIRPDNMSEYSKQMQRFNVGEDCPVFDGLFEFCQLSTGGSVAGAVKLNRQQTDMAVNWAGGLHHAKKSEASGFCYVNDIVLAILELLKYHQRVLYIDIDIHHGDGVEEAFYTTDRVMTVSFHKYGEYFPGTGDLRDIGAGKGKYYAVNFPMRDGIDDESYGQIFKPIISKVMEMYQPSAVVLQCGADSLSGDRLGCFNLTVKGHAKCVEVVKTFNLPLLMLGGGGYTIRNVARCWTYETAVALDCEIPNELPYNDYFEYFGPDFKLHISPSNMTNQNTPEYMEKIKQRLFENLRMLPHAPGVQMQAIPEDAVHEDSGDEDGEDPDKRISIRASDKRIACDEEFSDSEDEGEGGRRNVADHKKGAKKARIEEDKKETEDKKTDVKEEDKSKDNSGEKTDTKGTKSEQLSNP
Description: as §2

HDAC3 = molecular target: T5, HDAC3 (Homo sapiens, UniProt O15379); assay: HDAC enzyme assay, in vitro biochemical; details: pre-incubated 24 hours at 4°C; n = 3; read-out: IC50 against HDAC3
T5 construct: purchased BPS Biosciences
T5 sequence (O15379 whole entry): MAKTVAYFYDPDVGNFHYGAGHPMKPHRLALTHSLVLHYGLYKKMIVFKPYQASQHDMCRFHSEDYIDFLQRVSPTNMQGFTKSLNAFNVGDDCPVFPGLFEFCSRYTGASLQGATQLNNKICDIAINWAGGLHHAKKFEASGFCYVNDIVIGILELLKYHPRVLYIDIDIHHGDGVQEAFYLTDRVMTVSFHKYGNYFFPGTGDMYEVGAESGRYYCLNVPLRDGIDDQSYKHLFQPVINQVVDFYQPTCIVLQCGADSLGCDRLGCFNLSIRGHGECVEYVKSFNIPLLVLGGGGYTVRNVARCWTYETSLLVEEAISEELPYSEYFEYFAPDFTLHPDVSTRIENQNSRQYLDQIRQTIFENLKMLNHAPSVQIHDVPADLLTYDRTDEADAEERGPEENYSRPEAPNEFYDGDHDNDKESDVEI
T5 sequence (Q9Y618 395-489 partner limits assumed): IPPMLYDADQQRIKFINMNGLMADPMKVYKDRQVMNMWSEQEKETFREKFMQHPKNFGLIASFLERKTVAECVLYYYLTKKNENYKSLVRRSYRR
Description: as §2

HDAC1 = molecular target: T6, HDAC1 (Homo sapiens, UniProt Q13547); assay: HDAC enzyme assay, in vitro biochemical
T6 construct: purchased BPS Biosciences
T6 sequence (Q13547 whole entry): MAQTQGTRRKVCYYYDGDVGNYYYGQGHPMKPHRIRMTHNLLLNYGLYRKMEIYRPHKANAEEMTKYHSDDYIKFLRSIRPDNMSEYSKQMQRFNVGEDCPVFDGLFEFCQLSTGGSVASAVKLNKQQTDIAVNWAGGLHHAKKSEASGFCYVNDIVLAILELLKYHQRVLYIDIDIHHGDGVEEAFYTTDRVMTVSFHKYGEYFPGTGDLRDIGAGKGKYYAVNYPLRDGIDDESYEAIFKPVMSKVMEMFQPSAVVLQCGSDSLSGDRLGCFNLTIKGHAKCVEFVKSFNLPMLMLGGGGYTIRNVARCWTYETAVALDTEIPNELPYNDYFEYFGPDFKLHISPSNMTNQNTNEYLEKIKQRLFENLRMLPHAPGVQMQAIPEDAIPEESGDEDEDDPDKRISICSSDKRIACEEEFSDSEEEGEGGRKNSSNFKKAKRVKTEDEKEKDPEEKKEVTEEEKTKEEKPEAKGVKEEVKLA
Description: as §2

MOLM-13 cells = assay: Cell viability assay (CellTiter-Glo), single agent and combination; details: read-out: IC50 cell viability MOLM-13; 72 hours
Description: (§5) MV-4-11, Kasumi-1, and HL-60 AML cell lines were all obtained from ATCC. MOLM-13 and NB-4 cell lines were obtained from DSMZ. […] The identity of each cell line was validated and documented by the suppliers. All experiments were performed with cells maintained at low passage numbers.
(§6) Compounds and/or solvent dimethyl sulfoxide (DMSO) were added at the same time using an HP D300 digital dispenser (Hewlett Packard) in triplicate or quadruplicate and incubated for 72 hours at 37°C. Viability was measured by adding 25 μL CellTiter-Glo (Promega), incubating for 10 minutes, and measuring luminescence on a SpectraMax (Molecular Devices). […] CI < 1 indicates synergism, CI = 1 indicates additivity, and CI > 1 indicates antagonism.

MV-4-11 and HL-60 cells [3] = assay: Quantitative real time PCR (qPCR) of CDKN1A, CDKN1C, GATA2, HES1; assay type: cell-based, human; details: MV-4-11 and HL-60, 48 hours
Description: RNA isolations were performed on a Qiacube (Qiagen) using the RNeasy Micro Kit (Qiagen) according to manufacturer’s protocol. RNA was converted to cDNA using the High Capacity RNA-to-cDNA Kit (Life Technologies) and qPCR performed using the Taqman Gene Expression Max Mix according to manufacturer’s protocol (Applied Bioscience). The following ThermoFisher taqman probes were used: GATA2 (Hs01060665_g1), GAPDH (Hs0275899_g1), ACTB (Hs00231119_m1), CDKN1A (Hs00355782_m1), CDKN1C (Hs00175938_m1), HES1 (Hs00172878_m1).

MV-4-11 and HL-60 cells [4] = assay: Flow cytometry, surface level of CD11b (differentiation); assay type: cell-based, human; details: single agent, 72 hours
Description: as §1
The frequency of CD11b positive cells out of total viable cells identified by forward and side scatter profile was quantified.

[5] = system: five human AML cell lines (MV-4-11, Kasumi-1, HL-60, MOLM-13, NB-4); assay: Cell viability assay, summary over five human AML cell lines; details: 72 hours
Description: as §5, §6

NB-4 cells = assay: Cell viability assay (CellTiter-Glo); details: read-out: IC50 cell viability NB-4; 72 hours
Description: as §5
Compounds and/or solvent dimethyl sulfoxide (DMSO) were added at the same time using an HP D300 digital dispenser (Hewlett Packard) in triplicate or quadruplicate and incubated for 72 hours at 37°C. Viability was measured by adding 25 μL CellTiter-Glo (Promega), incubating for 10 minutes, and measuring luminescence on a SpectraMax (Molecular Devices).

MOLM-13 xenograft = assay: In vivo model of AML: MOLM-13 xenograft, time to endpoint (TTE) and survival; details: Azacitidine 5.5 mg/kg, iv, bi-weekly; for Tumor volume: individual animal;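 for all read-outs here: female Crl:NU(NCr)-Foxn1^nu mice bearing subcutaneous flank MOLM-13 tumors, caliper-measured twice per week, volume as width^2 × length/2, endpoint reached at 2000 mm^3 tumor volume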

Nc1ccc(-c2cccs2)cc1NC(=O)c1ccc2c(c1)cc(C1CC1)n2CCN1CCOCC1 [ACY-1035]
cells in S phase (MV-4-11 and HL-60 cells [1]): dose-dependent reduction of cells in S phase | inhibition of HDAC8 (HDAC8): did not inhibit | inhibition of HDAC5 (HDAC5): did not inhibit | inhibition of HDAC9 (HDAC9): did not inhibit | acetylation on histone H2B lysine 5 (H2BK5ac) and histone H3 lysine 56 (H3K56ac) [2]: dose-dependent accumulation | selectivity for HDAC2 over HDAC3 (HDAC2): approximately 50 fold | IC50 (HDAC2; pre-incubated 24 hours at 4°C, n = 3, read-out: IC50 against HDAC2): 23 nM | IC50 (HDAC3): 2000 nM | selectivity for HDAC1 over HDAC3 (HDAC1): more than 150 fold | IC50 (HDAC1; pre-incubated 24 hours at 4°C, n = 3, read-out: IC50 against HDAC1): 9.4 nM | IC50 (MOLM-13 cells): 2900 nM | expression of CDKN1A, CDKN1C, GATA2 and HES1 (qPCR) (MV-4-11 and HL-60 cells [3]): up-regulated | differentiation, surface expression of CD11b (MV-4-11 and HL-60 cells [4]): dose-dependent induction of differentiation | IC50 ([5]; read-out: IC50 values cell viability, range, five human AML cell lines, both compounds): 800 to 3300 nM | IC50 ([5]; read-out: average IC50 value, viability of AML cells, average of five AML cell lines): 2600 nM | IC50 (NB-4 cells): 2800 nM

Nc1ncn([C@@H]2O[C@H](CO)[C@@H](O)[C@H]2O)c(=O)n1 [azacitidine]
expression of CDKN1A, CDKN1C, GATA2 and HES1 (qPCR) (MV-4-11 and HL-60 cells [3]): up-regulated | TTE (MOLM-13 xenograft; TTE for individual animal): 14.4 and 17 and 17.1 and 17.2 and 17.4 and 17.6 and 17.7 | Tumor volume (MOLM-13 xenograft; day of study 1): 108 mm3 and 126 mm3 and 144 mm3 and 172 mm3 | Tumor volume (MOLM-13 xenograft; day of study 5): 172 mm3 and 126 mm3 and 245 mm3 and 196 mm3 and 365 mm3 and 256 mm3 | Tumor volume (MOLM-13 xenograft; day of study 8): 500 mm3 and 365 mm3 and 405 mm3 and 700 mm3 and 288 mm3 and 650 mm3 and 726 mm3 and 550 mm3 | Tumor volume (MOLM-13 xenograft; day of study 12): 1470 mm3 and 936 mm3 and 1183 mm3 and 1862 mm3 and 787 mm3 and 1080 mm3 and 1008 mm3 and 1152 mm3 and 1666 mm3 | Tumor volume (MOLM-13 xenograft; day of study 15): 1913 mm3 and 1568 mm3 and 2025 mm3 and 2816 mm3 and 1268 mm3 and 1666 mm3 and 1764 mm3 and 3240 mm3 | Tumor volume (MOLM-13 xenograft; day of study 19): 2025 mm3 and 2432 mm3 and 2176 mm3 and 2138 mm3 and 2250 mm3
